The values that follow come from patent publication US20230020329A1, “Annelated 9-hydroxy-1,8-dioxo-1,3,4,8-tetrahydro-2H-pyrido[1,2-a]pyrazine-7-carboxamides as HIV integrase inhibitors, methods of preparation and application thereof” (priority 2019, published 2023).

This assay relates to HIV-1 (IIIB strain). Description: Anti-HIV cytoprotection assay (XTT), HIV-1 IIIB in CEM-SS cells. Format: cell-based. Particulars: Human immunodeficiency virus 1, IIIB, CEM-SS, CEM-SS cell line; read-out: Inhibitory activity (EC50) against HIV-1 (IIIB strain). An excerpt: a) Inhibitory Activity of the Lymphocytropic Virus Strain HIV-1 (IIIB) in the CEM-SS Cell Line.
The evaluation was done by ImQuest BioSciences, Inc. (Frederick, Md., USA). CEM-SS cells [Foley G. E. et al. Continuous Culture of Human Lymphoblasts from Peripheral Blood of a Child with Acute Leukemia. Cancer 1965, 18, 522-529] obtained through the NIH AIDS Research and Reference Reagent Program (Manassas, Va., USA) were passaged in T-75 flasks prior to use cell culture medium consisting of RPMI1640 medium (Lonza; Walkersville, Md., USA) supplemented with 10% heat inactivated fetal bovine serum (Gibco; Grand Island, N.Y.), […] L-glutamine (Lonza), […] penicillin (Lonza) and […] streptomycin (Lonza) for antiviral analysis. The CEM-SS cells were kept in RPMI 140 medium supplemented with 10% heat inactivated bovine fetal serum, 2 mM glutamine, 100 U/ml penicillin, and 100 μg/ml streptomycin.
A lymphocytropic HIV-1 IIIB strain [Popovic, M. et al. Detection, isolation, and continuous production of cytopathic retroviruses (HTLV-III) from patients with AIDS and pre-AIDS. Science. 1984, 224 (4648), 497-500] was chosen for a virus to be analyzed. The virus was obtained through the NIH AIDS Research and Reference Reagents Program and grown in CEM-SS cells to produce a stock virus pool. A pre-titrated aliquot of the virus was removed from the freezer (−80° C.) and allowed to slowly thaw to room temperature in a biological safety cabinet. The virus was diluted in a tissue culture medium so that the amount of virus added in 50 μl per well was sufficient to kill 85 to 95% of the cells 6 days after infection. HIV-1 IIIB was grown and titrated in CEM-SS cells. The inhibitory effect of […] was evaluated in CEM-SS cells as described earlier [Nara, P. L. at al. Simple, rapid, quantitative, syncytium-forming microassay for the detection of human immunodeficiency virus neutralizing antibody. AIDS Res. Hum. Retroviruses 1987, 3, 283-302.] in microtiter plate anti-HIV assays to quantitatively assess the ability of a compound to inhibit HIV-induced cell death. Quantification was carried out using 2,3-bis-(2-methoxy-4-nitro-5-[…])-(2H)-tetrazolium-5-carboxanilide (XTT) tetrazolium, which is metabolized to a stained formazan product through viable […] The compounds given in Table 1 were dissolved at 10 μM in DMSO and stored at −20° C.
Test materials were evaluated using antiviral assays in triplicate in concentrations of 30 and 10 nM. The compounds shown in table 1 were dissolved at 10 μM in DMSO and stored at −20° C. […] Sixty nanomolar concentrations of each compound (2 times that of the test concentration in the well) were prepared by diluting 10 μM DMSO stock 1:100 in cell culture medium (10 μl of compound added to 990 μl of the medium) followed by 1:10 dilution (10 μl of the compound was added to 90 μl of the medium), then 6 μl was added to 994 μl of the medium; […] μl was added to a 96-well microtiter plate in triplicate to ensure efficacy and one colorimetric well. Twenty nanomolar concentrations of each compound (twice as much as the test concentration in the well) were prepared by diluting 10 μM DMSO with the original 1:100 in cell culture medium (10 μl of the compound added to 990 μl of the medium) followed by diluting […] (10 μl of the compound was added to 900 μl of the medium), then 20 μl was added to 980 μl of the medium; 100 μl was added to a 96-well microtiter plate in triplicate to ensure efficacy and one colorimetric well.
Azidothymidine (AZT) was purchased from Sigma Aldrich (USA) and evaluated as a positive control compound in an antiviral assay using a six-concentration reaction curve on each assay plate.
Test compounds were initially evaluated for HIV-1 IIIB strain in CEM-SS cells at test concentrations of 30 and 10 nM. […]
On the technique in general: Tetrazolium assays rely on reduction of a dye to a coloured formazan, in cell work by metabolically active cells.
As to `CC(C)n1c(CNC(=O)c2cn3c(c(O)c2=O)C(=O)N2[C@@H](C)CO[C@@H]2C3)nc2ccc(Cl)cc21` [Compound 1.1.45, (3S,11aR)-6-hydroxy-3-methyl-N-[(6-chloro-1-isopropyl-1H-benzimidazol-2-yl)methyl]-5,7-dioxo-2,3,5,7,11,11a-hexahydro[1,3]oxazolo[3,2-a]pyrido[1,2-d]pyrazine-8-carboxamide], the concentration for a half-maximal effect (EC50) was more than 30 nM.
Next, `C[C@H]1CO[C@@H]2Cn3cc(C(=O)NCc4ccc5[nH]c(=O)[nH]c5c4)c(=O)c(O)c3C(=O)N12` [Compound 1.1.46, (3S,11aR)-6-hydroxy-N-[(2-oxo-2,3-dihydro-1H-benzimidazol-5-yl)methyl]-3-methyl-5,7-dioxo-2,3,5,7,11,11a-hexahydro[1,3]oxazolo[3,2-a]pyrido[1,2-d]pyrazine-8-carboxamide]: more than 30 nM; `C[C@H]1CO[C@@H]2Cn3cc(C(=O)NCc4ccc5ccccc5n4)c(=O)c(O)c3C(=O)N12` [Compound 1.1.49, (3S,11aR)-6-hydroxy-3-methyl-N-(quinolin-2-ylmethyl)-5,7-dioxo-2,3,5,7,11,11a-hexahydro[1,3]oxazolo[3,2-a]pyrido[1,2-d]pyrazine-8-carboxamide]: 2 to 10 nM; `C[C@H]1CO[C@@H]2Cn3cc(C(=O)NCc4cnc5ccccc5c4)c(=O)c(O)c3C(=O)N12` [Compound 1.1.50, (3S,11aR)-6-hydroxy-3-methyl-N-(quinolin-3-ylmethyl)-5,7-dioxo-2,3,5,7,11,11a-hexahydro[1,3]oxazolo[3,2-a]pyrido[1,2-d]pyrazine-8-carboxamide]: 2 to 10 nM.
Next, `C[C@H]1CO[C@@H]2Cn3cc(C(=O)NCc4cccc5ncccc45)c(=O)c(O)c3C(=O)N12` [Compound 1.1.52, (3S,11aR)-6-hydroxy-3-methyl-N-(quinolin-5-ylmethyl)-5,7-dioxo-2,3,5,7,11,11a-hexahydro[1,3]oxazolo[3,2-a]pyrido[1,2-d]pyrazine-8-carboxamide]: approximately 10 nM; `C[C@H]1CO[C@@H]2Cn3cc(C(=O)NCc4cnc5ccccn45)c(=O)c(O)c3C(=O)N12` [Compound 1.1.56, (3S,11aR)-6-hydroxy-N-(imidazo[1,2-a]pyridin-3-ylmethyl)-3-methyl-5,7-dioxo-2,3,5,7,11,11a-hexahydro[1,3]oxazolo[3,2-a]pyrido[1,2-d]pyrazine-8-carboxamide]: more than 30 nM.
Take `C[C@H]1CO[C@@H]2Cn3cc(C(=O)NCc4cn5cccnc5n4)c(=O)c(O)c3C(=O)N12` [Compound 1.1.58, (3S,11aR)-6-hydroxy-N-(imidazo[1,2-a]pyrimidin-2-ylmethyl)-3-methyl-5,7-dioxo-2,3,5,7,11,11a-hexahydro[1,3]oxazolo[3,2-a]pyrido[1,2-d]pyrazine-8-carboxamide]: the EC50 was more than 30 nM.
Next, `C[C@H]1CO[C@@H]2Cn3cc(C(=O)NCc4cnc5cnccn45)c(=O)c(O)c3C(=O)N12` [Compound 1.1.59, (3S,11aR)-6-hydroxy-N-(imidazo[1,2-a]pyrazin-3-ylmethyl)-3-methyl-5,7-dioxo-2,3,5,7,11,11a-hexahydro[1,3]oxazolo[3,2-a]pyrido[1,2-d]pyrazine-8-carboxamide]: more than 30 nM; `C[C@H]1CO[C@@H]2Cn3cc(C(=O)NCc4nnc5ccc(Cl)nn45)c(=O)c(O)c3C(=O)N12` [Compound 1.1.60, (3S,11aR)-6-hydroxy-3-methyl-N-[(6-chloro[1,2,4]triazolo[4,3-b]pyridazin-3-yl)methyl]-5,7-dioxo-2,3,5,7,11,11a-hexahydro[1,3]oxazolo[3,2-a]pyrido[1,2-d]pyrazine-8-carboxamide]: 10 to 30 nM.
Next, `C[C@H]1CO[C@@H]2Cn3cc(C(=O)NCc4nnc5n4CCCC5)c(=O)c(O)c3C(=O)N12` [Compound 1.1.61, (3S,11aR)-6-hydroxy-3-methyl-N-(5,6,7,8-tetrahydro[1,2,4]triazolo[4,3-a]pyridin-3-ylmethyl)-5,7-dioxo-2,3,5,7,11,11a-hexahydro[1,3]oxazolo[3,2-a]pyrido[1,2-d]pyrazine-8-carboxamide]: more than 30 nM; `C[C@H]1CO[C@@H]2Cn3cc(C(=O)NCc4n[nH]c5c4CCCCC5)c(=O)c(O)c3C(=O)N12` [Compound 1.1.62, (3S,11aR)-6-hydroxy-N-(1,4,5,6,7,8-hexahydrocyclohepta[c]pyrazol-3-ylmethyl)-3-methyl-5,7-dioxo-2,3,5,7,11,11a-hexahydro[1,3]oxazolo[3,2-a]pyrido[1,2-d]pyrazine-8-carboxamide]: 2 to 10 nM.
In the case of `C[C@H]1CO[C@@H]2Cn3cc(C(=O)NCc4nc5c(s4)CCCCC5)c(=O)c(O)c3C(=O)N12` [Compound 1.1.63, (3S,11aR)-6-hydroxy-3-methyl-5,7-dioxo-N-(5,6,7,8-tetrahydro-4H-cyclohepta[d][1,3]thiazol-2-ylmethyl)-2,3,5,7,11,11a-hexahydro[1,3]oxazolo[3,2-a]pyrido[1,2-d]pyrazine-8-carboxamide] it was more than 30 nM.
`Cc1nc2cc(CNC(=O)c3cn4c(c(O)c3=O)C(=O)N3[C@@H](C)CO[C@@H]3C4)ccc2n1C` [Compound 1.1.64, (3S,11aR)-6-hydroxy-3-methyl-N-[(1,2-dimethyl-1H-benzimidazol-5-yl)methyl]-5,7-dioxo-2,3,5,7,11,11a-hexahydro[1,3]oxazolo[3,2-a]pyrido[1,2-d]pyrazine-8-carboxamide]: the EC50 is more than 30 nM.
Take `C[C@H]1CO[C@@H]2Cn3cc(C(=O)NCc4ccnc5ccccc45)c(=O)c(O)c3C(=O)N12` [Compound 1.1.65, (3S,11aR)-6-hydroxy-3-methyl-N-(quinolin-4-ylmethyl)-5,7-dioxo-2,3,5,7,11,11a-hexahydro[1,3]oxazolo[3,2-a]pyrido[1,2-d]pyrazine-8-carboxamide]: the EC50 was less than 2 nM.
Consider `C[C@@H]1CCO[C@H]2Cn3cc(C(=O)NCc4c(F)cc(F)nc4F)c(=O)c(O)c3C(=O)N12` [Compound 1.2.3, (4R,12aS)-7-hydroxy-4-methyl-N-[(2,4.6-trifluoropyridin-3-yl)methyl]-6,8-dioxo-3,4,6,8,12,12a-hexahydro-2H-pyrido[1′,2′:4,5]pyrazino[2,1-b][1,3]oxazine-9-carboxamide], for which the half-maximal effective concentration (EC50) lay in the range of 2 to 10 nM.
In the case of `C[C@@H]1CCO[C@H]2Cn3cc(C(=O)NCc4c(F)cncc4F)c(=O)c(O)c3C(=O)N12` [Compound 1.2.4, (4R,12aS)-7-hydroxy-N-[(3,5-difluoropyridin-4-yl)methyl]-4-methyl-6,8-dioxo-3,4,6,8,12,12a-hexahydro-2H-pyrido[1′,2′:4,5]pyrazino[2,1-b][1,3]oxazine-9-carboxamide] it was 2 to 10 nM.
In the case of `O=C(NCc1ccc(F)nc1F)c1cn2c(c(O)c1=O)C(=O)N1[C@H]3CC[C@H](C3)O[C@@H]1C2` [Compound 1.3.1, (2R,5S,13aR)-8-hydroxy-N-[(2,6-difluoropyridin-3-yl)methyl]-7,9-dioxo-2,3,4,5,7,9,13,13a-octahydro-2,5-methanopyrido[1′,2′:4,5]pyrazino[2,1-b][1,3]oxazepine-10-carboxamide] it was 2 to 10 nM; in that of `O=C(NCc1c(F)cc(F)nc1F)c1cn2c(c(O)c1=O)C(=O)N1[C@H]3CC[C@H](C3)O[C@@H]1C2` [Compound 1.3.2, (2R,5S,13aR)-8-hydroxy-N-[(2,4,6-trifluoropyridin-3-yl)methyl]-7,9-dioxo-2,3,4,5,7,9,13,13a-octahydro-2,5-methanopyrido[1′,2′:4,5]pyrazino[2,1-b][1,3]oxazepine-10-carboxamide], 2 to 10 nM.

By EC50 is commonly meant the concentration that produces a half-maximal response.
